How the values were obtained:
[1] = target: T1, EGFR^T790M (Homo sapiens, UniProt P00533, T790M); assay: Homogeneous time-resolved fluorescence EGFR-TK assay; format: biochemical; conditions: selectivity index
T1 construct: purchased Signalchem
Procedure: (§1) EGFR inhibition assay was performed on A549 cancer cells using cloud clone product SEA757Hu 96 Ki, according to manufacturer’s instructions protocol. The homogeneous time-resolved fluorescence assay method was used to assess the inhibitory activity of 3e and 3f against EGFR^WT, EGFR^T790M and EGFR^L858R. The EGFR proteins (EGFR^WT, EGFR^T790M and EGFR^L858R) were obtained from Signalchem (BC V6V 2J2, Canada). ATP and other chemicals were obtained from Sigma. […] After 30 min, the reaction was stopped by adding detection reagents containing EDTA.

[2] = target: T2, EGFR^L858R (Homo sapiens, UniProt P00533, L858R); assay: as above; format: biochemical; conditions: selectivity index
T2 construct: purchased Signalchem
Procedure: as §1

[3] = test system: WI-38; assay: MTT assay on normal lung cell line; conditions: Homo sapiens, WI-38, 24 h, read-out: IC50 WI-38
Procedure: (§4) Cell line cells were purchased from the American Type Culture Collection (ATCC, Manassas, VA) and were cultured according to the supplier’s instructions. […] The media was changed every 48 h, and the cells were split when 80–90% confluence was reached. Cell viability was evaluated by MTT assay.

[4] = test system: Caspase 9; assay: RT-qPCR gene expression in A549 cells; format: cell-based, human; conditions: A549, 24 h, vs vehicle cells, beta-actin housekeeping gene
Procedure: (§2) The real-time polymerase chain reaction (RT-qPCR) technique was used to evaluate the gene expression. A panel of eight genes (P53, BAX, Caspase-3, Caspase-8, Caspase-9, MMP1, CDK4, and Bcl2) was chosen to estimate the compounds’ ability to induce apoptosis. A549 cancer cells were treated with 3e and 3f compounds for 24 h before total RNA extraction. While untreated A549 cancer cells were utilized as a negative control. One-step RT-qPCR was performed using the iScript™ One-Step RT-PCR kit with SYBR®. The primer pairs sequences for each gene used are mentioned in Table 7. Control reactions were formed […] or without the reverse transcriptase enzyme.

[5] = test system: Caspase 8; assay: RT-qPCR gene expression in A549 cells; format: cell-based, human; conditions: A549, 24 h, vs vehicle cells, beta-actin housekeeping gene
Procedure: as §2

[6] = test system: P53; assay: RT-qPCR gene expression in A549 cells; format: cell-based, human; conditions: A549, 24 h, vs vehicle cells
Procedure: as §2

[7] = test system: Bax; assay: RT-qPCR gene expression in A549 cells; format: cell-based, human; conditions: A549, 24 h, vs vehicle cells
Procedure: as §2

[8] = test system: MMP1; assay: RT-qPCR gene expression in A549 cells; format: cell-based, human; conditions: A549, 24 h, vs vehicle cells, beta-actin housekeeping gene
Procedure: as §2

[9] = test system: Caspase 3; assay: RT-qPCR gene expression in A549 cells; format: cell-based, human; conditions: A549, 24 h, vs vehicle cells, beta-actin housekeeping gene
Procedure: as §2

[10] = test system: Bcl2; assay: RT-qPCR gene expression in A549 cells; format: cell-based, human; conditions: A549, 24 h, vs vehicle cells, beta-actin housekeeping gene
Procedure: as §2

[11] = test system: CDK4; assay: RT-qPCR gene expression in A549 cells; format: cell-based, human; conditions: A549, 24 h, vs vehicle cells, beta-actin housekeeping gene
Procedure: as §2

[12] = test system: HT-29; assay: MTT antiproliferative assay; conditions: Homo sapiens, HT-29, 24 h, read-out: IC50 HT-29
Procedure: as §4

[13] = test system: A549; assay: MTT antiproliferative assay; conditions: Homo sapiens, A549, 24 h, read-out: IC50 A549
Procedure: as §4

[14] = test system: MCF-7; assay: MTT antiproliferative assay; conditions: Homo sapiens, MCF7, 24 h, read-out: IC50 MCF-7
Procedure: as §4

[15] = test system: A549 lung cancer cells; assay: Cell cycle analysis (DNA content, flow cytometry); format: cell-based, human; conditions: A549, 24 h, at IC50; for DNA content Pre-G1%: vehicle 2.28%; for DNA content G2/M%: vehicle 8.99%; for DNA content S%: vehicle 44.26%; for DNA content G0–G1%: vehicle 46.75%
Procedure: (§3) Quantitation of DNA content was evaluated using the Annexin V-FITC Apoptosis Detection kit (BioVision, CA, USA). Dual staining for Annexin-V and PI allows the discrimination between live cells, necrotic cells, and cells in different phases of apoptosis. […] Then, cells were collected and washed with 1X phosphate-buffered saline. The cells were stained in the dark with annexin V-FITC and propidium iodide in a binding buffer and analyzed using the flow cytometer. The cell cycle profiles were analysed using MultiCycle software (Phoenix Flow Systems, San Diego, CA)[60].

[16] = test system: PC3; assay: MTT antiproliferative assay; conditions: Homo sapiens, PC-3, 24 h, read-out: IC50 PC3
Procedure: as §4

[17] = test system: A549 lung cancer cells; assay: Annexin V-FITC/PI flow cytometric apoptosis analysis; format: cell-based, human; conditions: A549, 24 h, 3e 2.3 µM, 3f 1.15 µM (IC50); for Apoptosis Late (%): vehicle 0.21%; for Apoptosis Early (%): vehicle 0.49%; for Apoptosis Total (%): vehicle 0.70%; for Necrosis (%): vehicle 1.58%
Procedure: as §3

[18] = target: T3, total EGFR (Homo sapiens, UniProt P00533); assay: EGFR inhibition assay on A549 cells (cloud clone SEA757Hu kit); format: cell-based; conditions: for Fold more efficient in inhibiting EGFR than lapatinib: total EGFR IC50 ratio to Lapatinib; for IC50: total EGFR, A549 cells
T3 construct: endogenous in cells; host or cells: A549
Procedure: as §1

[19] = test system: HCT-116; assay: MTT antiproliferative assay; conditions: Homo sapiens, HCT-116, 24 h, read-out: IC50 HCT-116
Procedure: as §4

IC50 [12]	IC50 [13]	IC50 [14]	IC50 [16]	IC50 [18]	IC50 [19]	melting point	Compound	IC50 [3]	other results
2.41 ± 0.41 µM	1.15 ± 0.38 µM	5.53 ± 0.33 µM	22.16 ± 0.18 µM	0.023 µM	4.61 ± 0.28 µM	224 to 226 °C	COc1cc2c(cc1OC)C1N(CC2)C(C(=O)C=Cc2cn(-c3ccccc3)nc2-c2ccccc2)=NN1c1ccc([N+](=O)[O-])cc1 (centres unmarked) [Compound 3f, 1-(8,9-Dimethoxy-1-(4-nitrophenyl)-1,5,6,10b-tetrahydro-[1,2,4]triazolo[3,4-a]isoquinolin-3-yl)-3-(1,3-diphenyl-1H-pyrazol-4-yl)prop-2-en-1-one]	1578 ± 0.23 µM	SI^b = EGFR^WT IC50/ EGFR^T790M IC50 [1]: 4.52; SI^a = EGFR^WT IC50/ EGFR^L858R IC50 [2]: 25.95; Caspase 9 gene expression fold change [4]: 9.32 fold; Caspase 8 gene expression fold change [5]: 3.48 fold; p53 gene expression (in words) [6]: significantly upregulated; Bax gene expression (in words) [7]: significantly upregulated; MMP1 gene expression fold change [8]: 0.31 fold; Caspase 3 gene expression fold change [9]: 11.26 fold; Bcl-2 gene expression fold change [10]: 0.13 fold; CDK4 gene expression fold change [11]: 0.29 fold; DNA content Pre-G1% [15]: 28.21%; DNA content G2/M% [15]: 39.84%; DNA content S% [15]: 26.42%; DNA content G0–G1% [15]: 33.74%; Apoptosis Late (%) [17]: 15.24%; Apoptosis Early (%) [17]: 3.08%; Apoptosis Total (%) [17]: 18.32%; Necrosis (%) [17]: 9.89%; Fold more efficient in inhibiting EGFR than lapatinib [18]: 1.91 fold
4.69 ± 0.55 µM	5.26 ± 0.49 µM	4.07 ± 0.38 µM	3.22 ± 1.37 µM	0.059 ± 0.16 µM	5.4 ± 0.73 µM	186 to 188 °C	COc1ccc(N2N=C(C(=O)C=Cc3cn(-c4ccccc4)nc3-c3ccccc3)N3CCc4cc(OC)c(OC)cc4C32)cc1 (centres unmarked) [Compound 3c, 1-(8,9-Dimethoxy-1-(4-methoxyphenyl)-1,5,6,10b-tetrahydro-[1,2,4]triazolo[3,4-a]isoquinolin-3-yl)-3-(1,3-diphenyl-1H-pyrazol-4-yl)prop-2-en-1-one]	451.08 ± 0.11 µM	–
8.23 ± 0.33 µM	9.66 ± 0.44 µM	5.02 ± 1.1 µM	13.7 ± 0.89 µM	–	5.92 ± 0.45 µM	–	CS(=O)(=O)CCNCc1ccc(-c2ccc3ncnc(Nc4ccc(OCc5cccc(F)c5)c(Cl)c4)c3c2)o1 [Lapatinib, reference compound]	1239.4 ± 0.18 µM	–
203.6 ± 0.48 µM	66.24 ± 0.36 µM	160.3 ± 0.47 µM	178.2 ± 0.34 µM	–	171.5 ± 0.23 µM	–	O=c1[nH]cc(F)c(=O)[nH]1 [Compound 5-FU, 5-fluorouracil, reference compound]	210.69 ± 0.19 µM	–
9.5 ± 0.46 µM	7.32 ± 0.52 µM	–	14.4 ± 0.78 µM	–	–	–	C#Cc1cccc(Nc2ncnc3cc(OCCOC)c(OCCOC)cc23)c1 [Erlotinib, reference compound]	1431.6 ± 0.22 µM	–
5.05 ± 0.42 µM	2.45 ± 0.68 µM	10 ± 0.23 µM	6.61 ± 1.63 µM	1.89 ± 0.37 µM	9.41 ± 0.47 µM	184 to 186 °C	COc1cc2c(cc1OC)C1N(CC2)C(C(=O)C=Cc2cn(-c3ccccc3)nc2-c2ccccc2)=NN1c1ccc(C)cc1 (centres unmarked) [Compound 3b, 1-(8,9-Dimethoxy-1-(p-tolyl)-1,5,6,10b-tetrahydro-[1,2,4]triazolo[3,4-a]isoquinolin-3-yl)-3-(1,3-diphenyl-1H-pyrazol-4-yl)prop-2-en-1-one]	669.88 ± 0.26 µM	–
15 ± 0.58 µM	4.68 ± 0.41 µM	13.5 ± 0.29 µM	5.05 ± 1.43 µM	0.066 µM	14.1 ± 0.66 µM	216 to 218 °C	COc1cc2c(cc1OC)C1N(CC2)C(C(=O)C=Cc2cn(-c3ccccc3)nc2-c2ccccc2)=NN1c1ccc(Cl)cc1 (centres unmarked) [Compound 3d, 1-(1-(4-Chlorophenyl)-8,9-dimethoxy-1,5,6,10b-tetrahydro-[1,2,4]triazolo[3,4-a]isoquinolin-3-yl)-3-(1,3-diphenyl-1H-pyrazol-4-yl)prop-2-en-1-one]	468.92 ± 0.17 µM	–
16.2 ± 0.57 µM	1.98 ± 0.5 µM	8.07 ± 0.1 µM	3.14 ± 1.76 µM	1.62 ± 0.23 µM	8.15 ± 0.54 µM	180 to 182 °C	COc1cc2c(cc1OC)C1N(CC2)C(C(=O)C=Cc2cn(-c3ccccc3)nc2-c2ccccc2)=NN1c1ccccc1 (centres unmarked) [Compound 3a, 1-(8,9-Dimethoxy-1-phenyl-1,5,6,10b-tetrahydro-[1,2,4]triazolo[3,4-a]isoquinolin-3-yl)-3-(1,3-diphenyl-1H-pyrazol-4-yl)prop-2-en-1-one]	890.44 ± 0.13 µM	–
4.2 ± 0.38 µM	2.3 ± 0.11 µM	4.21 ± 0.41 µM	2.72 ± 1.36 µM	–	14.8 ± 0.31 µM	220 to 222 °C	COc1cc2c(cc1OC)C1N(CC2)C(C(=O)C=Cc2cn(-c3ccccc3)nc2-c2ccccc2)=NN1c1ccc(Br)cc1 (centres unmarked) [Compound 3e, 1-(1-(4-Bromophenyl)-8,9-dimethoxy-1,5,6,10b-tetrahydro-[1,2,4]triazolo[3,4-a]isoquinolin-3-yl)-3-(1,3-diphenyl-1H-pyrazol-4-yl)prop-2-en-1-one]	1731.9 ± 0.21 µM	SI^b = EGFR^WT IC50/ EGFR^T790M IC50 [1]: 2.63; SI^a = EGFR^WT IC50/ EGFR^L858R IC50 [2]: 15.56; Caspase 9 gene expression fold change [4]: 6.55 fold; Caspase 8 gene expression fold change [5]: 4.23 fold; p53 gene expression (in words) [6]: significantly upregulated; Bax gene expression (in words) [7]: significantly upregulated; MMP1 gene expression fold change [8]: 0.37 fold; Caspase 3 gene expression fold change [9]: 9.29 fold; Bcl-2 gene expression fold change [10]: 0.18 fold; CDK4 gene expression fold change [11]: 0.44 fold; DNA content Pre-G1% [15]: 16.02%; DNA content G2/M% [15]: 22.74%; DNA content S% [15]: 35.93%; DNA content G0–G1% [15]: 41.33%; Apoptosis Late (%) [17]: 4.5%; Apoptosis Early (%) [17]: 4.26%; Apoptosis Total (%) [17]: 8.76%; Necrosis (%) [17]: 7.26%; Fold more efficient in inhibiting EGFR than lapatinib [18]: 1.42 fold

From publication PMC11535068, “Design, in silico studies and biological evaluation of novel chalcones tethered triazolo[3,4-a]isoquinoline as EGFR inhibitors targeting resistance in non-small cell lung cancer” (Scientific Reports, 2024)
